Data on one compound can be found in patent publication US20190144423A1, “AMIDE-SUBSTITUTED PYRIDINYLTRIAZOLE DERIVATIVES AND USES THEREOF” (BAYER PHARMA AKTIENGESELLSCHAFT, priority 2016, published 2019).

The structures appear in SMILES notation. pIC50: −log10 of the molar value.

The target of one assay is T1, human V1a receptor (Homo sapiens, UniProt P37288).
T1 construct: expressed in transfected cells; host or cells: CHO K1 (ATCC), also stably transfected with a modified aequorin
Description: Cellular in vitro assay for determining vasopressin receptor activity (V1a cell line, aequorin luminescence). The settings on record: CHO cell line transfected with human V1a receptor; antagonism of [Arg8]-vasopressin at EC50; Table 1A, compounds of the invention; read-out: IC50 hV1a. It counts as cell-based. How it is done:
(§1) B-1. Cellular In Vitro Assay for Determining Vasopressin Receptor Activity
(§2) The identification of agonists and antagonists of the V1a and V2 vasopressin receptors from humans, rats and dogs as well as the quantification of the activity of the compounds of the invention is carried out using recombinant cell lines. These cell lines originally derive from a hamster's ovary epithelial cell (Chinese Hamster Ovary, CHO K1, ATCC: American Type Culture Collection, Manassas, Va. 20108, USA). The test cell lines constitutively express the human, rat or dog V1a or V2 receptors. In case of the Gαq-coupled V1a receptors, cells are also stably transfected with a modified form of the calcium-sensitive photoproteins aequorin (human and rat V1a) or obelin (dog V1a), which, after reconstitution with the cofactor coelenterazine, emit light when there are increases in free calcium concentrations [Rizzuto R, Simpson A W, Brini M, Pozzan T, Nature 358, 325-327 (1992); Illarionov B A, Bondar V S, Illarionova V A, Vysotski E S, Gene 153 (2), 273-274 (1995)]. The resulting vasopressin receptor cells react to stimulation of the recombinantly expressed V1a receptors by intracellular release of calcium ions, which can be quantified by the resulting photoprotein luminescence. The Gs-coupled V2 receptors are stably transfected into cell lines expressing the gene for firefly luciferase under control of a CRE-responsible promoter. Activation of V2 receptors induces the activation of the CRE-responsive promoter via cAMP increase, thereby inducing the expression of firefly luciferase. The light emitted by photoproteins of V1a cell lines as well as the light emitted by firefly luciferase of V2 cell lines corresponds to the activation or inhibition of the respective vasopressin receptor. The bioluminescence of the cell lines is detected using a suitable luminometer [Milligan G, Marshall F, Rees S, Trends in Pharmacological Sciences 17, 235-237 (1996)].
Vasopressin V1a Receptor Cell Lines:
On the day before the assay, the cells are plated out in culture medium (DMEM/F12, 2% FCS, 2 mM glutamine, 10 mM HEPES, 5 μg/ml coelenterazine) in 384-well microtiter plates and kept in a cell incubator (96% humidity, 5% v/v CO2, 37° C.). On the day of the assay, test compounds in various concentrations are placed for 10 minutes in the wells of the microtiter plate before the agonist [Arg^8]-vasopressin at EC50 concentration is added. The resulting light signal is measured immediately in a luminometer.
(§3) Table 1A below lists individual IC50 values for the compounds of the invention (including racemic mixtures as well as separated enantiomers) that were obtained from cell lines transfected with the human V1a or V2 receptor: […]

The next assay addresses T2, human V2 receptor (Homo sapiens, UniProt P30518).
T2 construct: expressed in transfected cells; host or cells: CHO K1 (ATCC) line expressing firefly luciferase under a CRE-responsive promoter
Briefly: Cellular in vitro assay for determining vasopressin receptor activity (V2 cell line, CRE-luciferase). It counts as cell-based. The following applies: CHO cell line transfected with human V2 receptor; antagonism of [Arg8]-vasopressin at EC50; Table 1A, compounds of the invention; read-out: IC50 hV2. The procedure:
as §1, §2
Vasopressin V2 Receptor Cell Lines:
On the day before the assay, the cells are plated out in culture medium (DMEM/F12, 2% FCS, 2 mM glutamine, 10 mM HEPES) in 384-well microtiter plates and kept in a cell incubator (96% humidity, 5% v/v CO2, 37° C.). On the day of the assay, test compounds in various concentrations and the agonist [Arg^s]-vasopressin at EC50 concentration are added together to the wells, and plates are incubated for 3 hours in a cell incubator. Upon addition of the cell lysis reagent Triton™ and the substrate luciferin, luminescence of firefly luciferase is measured in a luminometer.
as §3

T2 sequence (P30518 whole entry): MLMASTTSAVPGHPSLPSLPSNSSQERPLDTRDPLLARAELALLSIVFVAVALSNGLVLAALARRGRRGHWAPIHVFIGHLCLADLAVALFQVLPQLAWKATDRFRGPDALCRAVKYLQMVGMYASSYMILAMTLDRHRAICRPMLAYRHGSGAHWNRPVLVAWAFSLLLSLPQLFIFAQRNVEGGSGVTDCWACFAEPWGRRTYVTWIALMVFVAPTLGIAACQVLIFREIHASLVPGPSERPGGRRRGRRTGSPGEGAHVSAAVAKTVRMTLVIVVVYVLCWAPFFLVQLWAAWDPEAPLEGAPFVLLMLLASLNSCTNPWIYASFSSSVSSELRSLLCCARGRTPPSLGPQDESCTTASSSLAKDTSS
T1 sequence (P37288 whole entry): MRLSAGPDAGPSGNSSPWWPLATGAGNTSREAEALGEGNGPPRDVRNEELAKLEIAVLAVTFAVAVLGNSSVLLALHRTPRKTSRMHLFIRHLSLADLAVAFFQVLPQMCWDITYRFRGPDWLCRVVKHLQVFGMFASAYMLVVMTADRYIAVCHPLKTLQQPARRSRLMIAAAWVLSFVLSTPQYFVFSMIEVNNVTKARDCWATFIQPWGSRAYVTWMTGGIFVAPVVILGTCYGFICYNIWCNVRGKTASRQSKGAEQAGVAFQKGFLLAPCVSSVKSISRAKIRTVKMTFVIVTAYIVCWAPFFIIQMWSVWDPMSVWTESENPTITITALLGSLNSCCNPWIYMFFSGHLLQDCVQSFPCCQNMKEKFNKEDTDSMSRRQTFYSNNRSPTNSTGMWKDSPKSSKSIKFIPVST

In the case of `CCOC(=O)c1cccnc1-n1nc(Cn2nc(-c3ccc(Cl)cc3)n(C[C@H](O)C(F)(F)F)c2=O)nc1C(N)=O` [Example 5, Ethyl 2-[5-carbamoyl-3-({3-(4-chlorophenyl)-5-oxo-4-[(2S)-3,3,3-trifluoro-2-hydroxypropyl]-4,5-dihydro-1H-1,2,4-triazol-1-yl}methyl)-1H-1,2,4-triazol-1-yl]nicotinate], the values for the negative logarithm of the IC50 (pIC50) at human V1a receptor and at human V2 receptor were 7.84 and 5.90, respectively.
